Source: patent publication US20120003177A1 (priority 2008, published 2012)
Entries after “also recorded” stand apart in the source; their conditions may differ. Like-named read-outs stand apart in the source and are kept apart here.

What was measured:
[1] = system: SKOV-3 human ovarian cancer cell line; experiment: MTT cytotoxicity of polycurcumins to SKOV-3 cells (72 h treatment); details: for IC50: Homo sapiens
Method: The human ovarian carcinoma SKOV-3 cell line was purchased from American type culture collection (ATCC). Cells were cultured in RPMI 1640 medium supplemented with 10% fetal bovine serum (HyClone, Logan, Utah) and grown at 37° C. in a humidified atmosphere of 5% CO2 (v/v) in air. All of the experiments involving cells were performed on cells in the exponential growth phase.
The cytotoxicity of polycurcumins was determined using the standard 3-(4,5-dimethylthiazolyl-2)-2,5-diphenyltetrazolium bromide (MTT) cell proliferation kit (ATCC, Manassas, Va.) according to manufacturer's protocol. In brief, SKOV-3 cells were seeded onto 96-well plates with a density of 15,000 cells per well and incubated at 37° C. in a humidified atmosphere of 95% air and 5% CO2 for 16 h. The medium in each well was replaced with 200 μL of culture medium containing the treatments and cultured for 72 h. The medium in each well was then replaced with fresh media and the cells were incubated for another 24 h. The incubation medium was then replaced with 100 μL of fresh medium and 10 μL of MIT reagent. After 6 h, 100 μL of detergent reagent was added to each well and incubated for 18 h at room temperature in the dark until all the crystals dissolved. The absorbance intensity at 570 nm was recorded on a Bio-Rad (model 550) microplate reader. Cell viability is defined as the percent live cells compared with untreated controls.
For each polycurcumin tested, the commoners such as 3,3′-dithiodipropionic acid, pyromellitic dianhydride, tri(ethylene glycol) divinyl ether and PEG, were used as controls.

[2] = cited from earlier work
[3] = PBS at pH 7.2; cited from earlier work
[4] = system: DU145 prostate carcinoma, A549 lung carcinoma, and HT29 colon carcinoma; details: read-out: IC50 (50% inhibitory concentration); variety of cancer cell lines; cited from earlier work

## O=C(O)CCSSCCC(=O)O [3,3′-dithiodipropionic acid]
[1]
  cytotoxicity of comonomer controls against SKOV-3 cells: no significant cytotoxicity

## polyethylene glycol [PEG]
[1]
  cytotoxicity of comonomer controls against SKOV-3 cells: no significant cytotoxicity

## O=c1oc(=O)c2cc3c(=O)oc(=O)c3cc12 [pyromellitic dianhydride]
[1]
  cytotoxicity of comonomer controls against SKOV-3 cells: no significant cytotoxicity

## C=COCCOCCOCCOC=C [tri(ethylene glycol) divinyl ether]
[1]; SKOV-3, MTT, comonomers as controls
  cytotoxicity of comonomer controls against SKOV-3 cells: no significant cytotoxicity

## COc1cc(C=CC(=O)CC(=O)C=Cc2ccc(O)c(OC)c2)ccc1O [Curcumin, 1,7-bis-(4-hydroxy-3-methoxyphenyl)-hepta-1,6-diene-3,5-dione]
[2]
  solubility of free curcumin in water, in words: almost insoluble in water; also recorded: practically insoluble in water
[1]; SK-OV-3, read-out: IC50, curcumin equivalent dose
  IC50: 21 µM
[1]; SK-OV-3, read-out: IC50-C (IC50 in terms of curcumin-equivalent dose)
  IC50: 7.8 µg/mL
[3]
  half life (t1/2): less than 10 min
[4]
  IC50: 10 to 75 µM
